Test results published in publication PMC7915026, “Sulfaguanidine Hybrid with Some New Pyridine-2-One Derivatives: Design, Synthesis, and Antimicrobial Activity against Multidrug-Resistant Bacteria as Dual DNA Gyrase and DHFR Inhibitors” (Antibiotics, 2021).
Values after ≈ are worked out from the molar mass of the structure shown.

Legend:
[1] = system: S. aureus ATCC 29213; assay: MIC and MBC determination; format: cell-based; details: Staphylococcus aureus, ATCC29213, S. aureus
[2] = system: neutrophils; assay: In vitro intracellular killing, nitro blue tetrazolium (NBT) reduction assay; format: cell-based
Description: One of the broad methods used for determining immune disorders for patients in hospitals is the NBT test to measure their immune responses. The reduction in NBT dye provides information about the phagocytic and intracellular killing functions of neutrophils, which are important for microbiocidal activity. The most promising derivatives (2a, 2b, 2d, 3a, 8, and 11) were evaluated against in vitro intracellular killing activities using a nitro blue tetrazolium (NBT) reduction assay and the obtained results expressed in percentage (%): increasing the percentage led to an improvement in the killing ability of the neutrophils used as innate immunity.
In vitro intracellular killing activities for the most promising six derivatives 2a, 2b, 2d, 3a, 8, and 11 were performed according to reported methods.

[3] = system: B. subtilis ATCC 6633; assay: MIC and MBC determination; format: cell-based; details: Bacillus subtilis, ATCC6633, B. subtilis
[4] = system: P. aeruginosa ATCC 27853; assay: MIC and MBC determination; format: cell-based; details: Pseudomonas aeruginosa, ATCC27853, P. aeruginosa
[5] = system: F. oxysporum (RCMB 008002); assay: MIC and MFC determination; format: cell-based
[6] = biological target: S. aureus DNA gyrase (Staphylococcus aureus, UniProt P0A0K8+P20831); assay: In vitro DNA gyrase supercoiling enzymatic assay; format: biochemical
Chain of S. aureus DNA gyrase (P20831 whole entry): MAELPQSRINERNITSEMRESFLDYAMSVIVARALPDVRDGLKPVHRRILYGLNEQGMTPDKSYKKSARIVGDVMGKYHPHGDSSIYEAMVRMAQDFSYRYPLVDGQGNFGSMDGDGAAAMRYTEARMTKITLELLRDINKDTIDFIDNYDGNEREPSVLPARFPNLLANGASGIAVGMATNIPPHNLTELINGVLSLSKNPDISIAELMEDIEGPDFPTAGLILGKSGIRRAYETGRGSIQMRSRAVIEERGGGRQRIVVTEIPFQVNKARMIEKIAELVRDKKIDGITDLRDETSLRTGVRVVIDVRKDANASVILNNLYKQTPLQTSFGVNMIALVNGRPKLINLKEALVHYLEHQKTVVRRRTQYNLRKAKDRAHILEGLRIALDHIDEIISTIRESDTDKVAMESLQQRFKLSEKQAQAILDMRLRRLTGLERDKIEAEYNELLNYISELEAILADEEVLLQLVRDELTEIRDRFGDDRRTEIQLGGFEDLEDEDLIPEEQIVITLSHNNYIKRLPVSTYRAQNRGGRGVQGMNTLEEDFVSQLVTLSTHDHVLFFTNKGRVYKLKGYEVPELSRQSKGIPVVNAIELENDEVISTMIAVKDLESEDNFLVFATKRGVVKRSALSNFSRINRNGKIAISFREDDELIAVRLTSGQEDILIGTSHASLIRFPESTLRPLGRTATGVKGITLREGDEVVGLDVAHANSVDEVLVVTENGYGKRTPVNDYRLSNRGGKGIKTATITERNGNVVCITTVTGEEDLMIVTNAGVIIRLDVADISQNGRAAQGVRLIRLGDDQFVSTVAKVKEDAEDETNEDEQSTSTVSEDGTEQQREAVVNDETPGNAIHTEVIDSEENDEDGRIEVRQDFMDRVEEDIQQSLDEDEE
Chain of S. aureus DNA gyrase (P0A0K8 whole entry): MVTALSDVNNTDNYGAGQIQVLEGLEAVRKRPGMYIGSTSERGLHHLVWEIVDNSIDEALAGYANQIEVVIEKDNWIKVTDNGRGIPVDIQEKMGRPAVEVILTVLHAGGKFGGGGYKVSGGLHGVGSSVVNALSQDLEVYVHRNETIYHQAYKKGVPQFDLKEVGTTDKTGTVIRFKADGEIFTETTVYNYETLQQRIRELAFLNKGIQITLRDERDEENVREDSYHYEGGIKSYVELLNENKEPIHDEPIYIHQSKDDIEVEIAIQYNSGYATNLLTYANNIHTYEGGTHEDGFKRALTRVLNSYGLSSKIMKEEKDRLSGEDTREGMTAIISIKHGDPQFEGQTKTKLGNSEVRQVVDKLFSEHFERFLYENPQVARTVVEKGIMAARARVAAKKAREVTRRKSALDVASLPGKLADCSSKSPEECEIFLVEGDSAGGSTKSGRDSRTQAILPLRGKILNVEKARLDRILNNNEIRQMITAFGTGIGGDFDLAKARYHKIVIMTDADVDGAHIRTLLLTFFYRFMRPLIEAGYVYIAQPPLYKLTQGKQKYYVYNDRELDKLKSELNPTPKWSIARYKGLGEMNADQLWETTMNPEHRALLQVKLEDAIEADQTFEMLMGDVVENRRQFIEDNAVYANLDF

[7] = system: Salmonella typhi (S. typhi ATCC 6539); assay: microbe, parasite or virus in culture; format: cell-based; details: Salmonella enterica, Salmonella typhi
[8] = system: E. coli ATCC 25922; assay: MIC and MBC determination; format: cell-based; details: Escherichia coli, ATCC25922, E. coli
[9] = system: E. faecalis ATCC 29212; assay: MIC and MBC determination; format: cell-based; details: Enterococcus faecalis, ATCC29212, E. faecalis
[10] = system: C. albicans (ATCC 10231); assay: MIC and MFC determination; format: cell-based
[11] = biological target: E. coli DHFR (dihydrofolate reductase) (Escherichia coli, UniProt P0ABQ4); assay: In vitro DHFR enzymatic assay; format: biochemical
Chain of E. coli DHFR (dihydrofolate reductase) (P0ABQ4 whole entry): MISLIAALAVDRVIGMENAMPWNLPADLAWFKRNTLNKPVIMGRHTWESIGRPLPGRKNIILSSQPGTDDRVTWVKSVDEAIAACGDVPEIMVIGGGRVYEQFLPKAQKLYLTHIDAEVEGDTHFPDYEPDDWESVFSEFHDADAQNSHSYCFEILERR

[12] = system: E. coli ATCC BAA-196; assay: MIC and MBC against multidrug-resistant strains; format: cell-based; details: Escherichia coli, ATCCBAA196
Description: (§1) Norfloxacin was used as a positive control for the multidrug resistance study.
(§2) The experiment was repeating for three-times.

[13] = system: P. aeruginosa ATCC BAA-2111; assay: MIC and MBC against multidrug-resistant strains; format: cell-based; details: Pseudomonas aeruginosa, ATCCBAA2111
Description: as §1, §2

[14] = system: S. aureus ATCC 43300; assay: MIC and MBC against multidrug-resistant strains; format: cell-based; details: Staphylococcus aureus, ATCC43300
Description: as §1, §2

[15] = system: S. aureus ATCC 33591; assay: MIC and MBC against multidrug-resistant strains; format: cell-based; details: Staphylococcus aureus, ATCC33591
Description: as §1, §2

[16] = system: E. coli ATCC BAA-196; assay: Inhibition zone against multidrug-resistant bacteria; format: cell-based; details: MDRB E. coli ATCC BAA-196
How it was run: (§3)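 Activity was tested by the agar plate diffusion method. The read-out is the diameter (mm) of the inhibition zone around each tested derivative, with norfloxacin as the positive control.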

[17] = system: P. aeruginosa ATCC BAA-2111; assay: as above; format: cell-based; details: MDRB P. aeruginosa ATCC BAA-2111
How it was run: as §3

[18] = system: S. aureus ATCC 43300; assay: as above; format: cell-based; details: MDRB S. aureus ATCC 43300
How it was run: as §3

[19] = system: S. aureus ATCC 33591; assay: as above; format: cell-based; details: MDRB S. aureus ATCC 33591
How it was run: as §3

[20] = system: E. faecalis ATCC 29212; assay: Inhibition zone, paper disk/agar diffusion; format: cell-based; details: E. faecalis; Na = no activity
How it was run: as §3

[21] = system: C. albicans (ATCC 10231); assay: Inhibition zone, paper disk/agar diffusion; format: cell-based; details: Na = no activity
How it was run: as §3

[22] = system: S. typhi ATCC 6539; assay: Inhibition zone, paper disk/agar diffusion; format: cell-based; details: S. typhi; Na = no activity
How it was run: as §3

[23] = system: S. aureus ATCC 29213; assay: Inhibition zone, paper disk/agar diffusion; format: cell-based; details: S. aureus; Na = no activity
How it was run: as §3

[24] = system: F. oxysporum (RCMB 008002); assay: Inhibition zone, paper disk/agar diffusion; format: cell-based; details: Na = no activity
How it was run: as §3

[25] = system: E. coli ATCC 25922; assay: Inhibition zone, paper disk/agar diffusion; format: cell-based; details: E. coli; Na = no activity
How it was run: as §3

## N#CC(=Cc1ccc(Cl)cc1)C(=O)Nc1ccc(S(=O)(=O)NC(=N)N)cc1 [Compound 2a, N-(4-(N-Carbamimidoylsulfamoyl)phenyl)-3-(4-chlorophenyl)-2-cyanoacrylamide]
[1]; read-out: MBC
  MBC: 132 ± 1.35 µM (≈ 53.1 µg/mL)
[1]; read-out: MIC
  MIC: 77.4 ± 2.65 µM (≈ 31.2 µg/mL)
[2]
  Intracellular Killing Activity: 82.8 ± 0.37%
[3]; read-out: MBC
  MBC: 45.8 ± 1.65 µM (≈ 18.5 µg/mL)
[3]; read-out: MIC
  MIC: 22.9 ± 1.02 µM (≈ 9.25 µg/mL)
[4]; read-out: MBC
  MBC: 219.9 ± 1.54 µM (≈ 88.8 µg/mL)
[4]; read-out: MIC
  MIC: 137 ± 2.12 µM (≈ 55.5 µg/mL)
[5]
  MFC/MIC: <2
[5]; Fusarium oxysporum, RCMB008002, read-out: MFC
  MFC: 217 ± 2.98 µM (≈ 87.5 µg/mL)
[5]; Fusarium oxysporum, RCMB008002, read-out: MIC
  MIC: 138 ± 1.69 µM (≈ 55.5 µg/mL)
[6]
  IC50: 23.9 ± 1.22 µM
[7]; read-out: MBC
  MBC: 139 ± 1.63 µM (≈ 56.2 µg/mL)
[7]; read-out: MIC
  MIC: 77.4 ± 1.06 µM (≈ 31.2 µg/mL)
[8]; read-out: MBC
  MBC: 90.4 ± 0.98 µM (≈ 36.5 µg/mL)
[8]; read-out: MIC
  MIC: 45.8 ± 0.98 µM (≈ 18.5 µg/mL)
[9]; read-out: MBC
  MBC: 38.7 ± 0.65 µM (≈ 15.6 µg/mL)
[9]; read-out: MIC
  MIC: 19.3 ± 0.65 µM (≈ 7.81 µg/mL)
[10]
  MFC/MIC: <2
[10]; Candida albicans, ATCC10231, read-out: MFC
  MFC: 103.1 ± 1.02 µM (≈ 41.6 µg/mL)
[10]; Candida albicans, ATCC10231, read-out: MIC
  MIC: 77.4 ± 0.85 µM (≈ 31.2 µg/mL)
[11]
  IC50: 5.54 ± 0.33 µM
[12]
  MBC: 29.4 ± 0.65 µM (≈ 11.9 µg/mL)
  MIC: 15.5 ± 0.26 µM (≈ 6.25 µg/mL)
[13]
  MBC: 21.3 ± 0.25 µM (≈ 8.61 µg/mL)
  MIC: 12.9 ± 0.65 µM (≈ 5.2 µg/mL)
[14]
  MBC: 22 ± 0.65 µM (≈ 8.88 µg/mL)
  MIC: 11 ± 0.25 µM (≈ 4.44 µg/mL)
[15]
  MBC: 8.19 ± 0.26 µM (≈ 3.31 µg/mL)
  MIC: 4.82 ± 0.24 µM (≈ 1.95 µg/mL)
[16]
  Mean Diameter of Inhibition Zone: 23 ± 0.94 mm
[17]
  Mean Diameter of Inhibition Zone: 24 ± 0.18 mm
[18]
  Mean Diameter of Inhibition Zone: 23 ± 0.11 mm
[19]
  Mean Diameter of Inhibition Zone: 25 ± 0.33 mm
[20]
  Mean Diameter of the Inhibition Zone: 23 ± 0.65 mm
[21]
  Mean Diameter of the Inhibition Zone: 25 ± 0.33 mm
[22]
  Mean Diameter of the Inhibition Zone: 23 ± 0.65 mm
[23]
  Mean Diameter of the Inhibition Zone: 25 ± 0.77 mm
[24]
  Mean Diameter of the Inhibition Zone: 21 ± 0.16 mm
[25]
  Mean Diameter of the Inhibition Zone: 26 ± 0.11 mm
